{
  "source": "paper PMC7743948",
  "about": "“D-LL-31 enhances biofilm-eradicating effect of currently used antibiotics for chronic rhinosinusitis and its immunomodulatory activity on human lung epithelial cells” (PLoS ONE, 2020)",
  "key": {"[1]": {"tested_on": "K. pneumoniae biofilm", "test": "Checkerboard synergy of D-LL-31 with antibiotics on biofilm", "format": "cell-based, Klebsiella pneumoniae", "conditions": "D-LL-31 combined with AMX; IC50 alone compared with concentration of combination", "experimental": "(§1) Bacterial viability in each interaction was determined using the plate count technique. The fractional inhibitory concentration index (FICI) values were calculated and interpreted in terms of synergism/antagonism as previously described. Each experiment was performed independently three times in duplicate."}, "[2]": {"tested_on": "A549 human lung epithelial cells", "test": "Cytokine antibody array of culture supernatant", "format": "cell-based", "conditions": "10 μM, 24 h", "experimental": "The immunomodulatory effect of D-LL-31 on A549 human lung epithelial cells was investigated using cytokine antibody arrays. […] Cells in medium without peptide were used as a control. After incubation, the secreted cytokines in culture supernatant were detected using a human angiogenesis antibody array kit (AAH-ANG-1000-4, Norcross, GA) according to the manufacturer's instructions. […] Each experiment was performed independently two times in duplicate."}, "[3]": {"tested_on": "all bacteria in biofilm", "test": "Killing of bacteria grown as biofilm (TSP pin lid), statements for all bacteria", "format": "cell-based", "experimental": "(§2) The effects of both conventional antibiotics and AMPs against bacteria under biofilm-stimulating condition were determined using a transferable solid phase (TSP) pin lid, which resembles the ‘Calgary’ biofilm device as previously described with some modifications. Each strain (10^7 CFU/ml) was added to sterile 96-well plates (Nunclon™), then covered by a TSP pin lid (NUNC™, Roskilde, Denmark), and further incubated at 37 °C for 24 h. […] Additionally, the effect of TOB (2–836 μM or 1–391 μg/ml) against P. aeruginosa biofilm was also investigated. Then the plates were statically incubated at 37 °C for 24 h. A well free of antimicrobial agent was used as a control. After 24 h, bacterial survival was determined using the plate count technique on NA (Himedia®). The percentage killing of each antimicrobial agent was calculated using the formula [1 − (CFU sample/CFU control)] × 100% [15, 19]. […] Each experiment was performed independently three times in duplicate."}, "[4]": {"tested_on": "S. epidermidis biofilm", "test": "Checkerboard synergy of D-LL-31 with antibiotics on biofilm", "format": "cell-based, Staphylococcus epidermidis", "conditions": "D-LL-31 combined with AMX; IC50 alone compared with concentration of combination", "experimental": "as §1"}, "[5]": {"tested_on": "biofilm matrix of all tested strains", "test": "Biofilm matrix reduction (AAA-model, CLSM, COMSTAT biomass), statements for all tested strains", "format": "cell-based", "experimental": "(§3) Briefly, 1.5 ml of each overnight culture (10^8 CFU/ml) was added to a 24-well tissue culture plate (Nunclon™). The plate was covered with a sterile stainless-steel lid containing glass coverslips and aerobically incubated at 37°C for 24 h. […] All tested conditions were incubated at 37°C for 24 h. A well free of antimicrobial agent was used as a control. Following incubation, biofilms were fixed with 2.5% glutaraldehyde (Sigma-Aldrich) at 25°C for 3 h. The fixed bacterial biofilms on glass coverslips were stained with 50 μg/ml Alexa Fluor® 488 (Invitrogen, Carlsbad, CA) for 30 min. This stain reacts with exopolysaccharide matrixes of the biofilm. The glass coverslips were then mounted with 80% glycerol and the stained cells were photographed using a confocal laser-scanning microscope (CLSM) (TCS SP8-Leica Microsystems, Wetzlar, Germany). […] Each experiment was performed independently three times in duplicate."}, "[6]": {"tested_on": "K. pneumoniae biofilm", "test": "microbe, parasite or virus in culture", "conditions": "biofilm, 24 h", "experimental": "as §2"}, "[7]": {"tested_on": "S. epidermidis biofilm", "test": "microbe, parasite or virus in culture", "experimental": "as §2"}, "[8]": {"tested_on": "P. aeruginosa biofilm", "test": "microbe, parasite or virus in culture", "conditions": "biofilm, 24 h", "experimental": "as §2"}, "[9]": {"tested_on": "A549 cells (human lung epithelial cells)", "conditions": "25 µM", "procedure": "Briefly, A549 cells were maintained in RPMI-1640 (HyClone™, Marlborough, MA) with 10% fetal bovine serum (FBS) (HyClone™) and sub-cultured by standard methods using trypsin/EDTA (0.25% trypsin, 0.1% EDTA) (Corning™, Corning, NY). A standard curve of A549 cells (100–50000 cells/well) was constructed as previously described with some modification [43]. For MTT assay, cells were plated at a density of 2.5×10^4 cells/well in 96-well plates and grown overnight. […] Prepared A549 cells were then exposed to the diluted peptides for 24 h at 37°C, 5% CO2 atmosphere. Negative controls received either culture medium or PPB. Cells with 2% dimethyl sulfoxide (DMSO) (Sigma-Aldrich) were used as positive control. Cytotoxicity was assessed using MTT (0.5 mg/ml) according to the manufacturer's instructions (Sigma-Aldrich). Absorbance was measured at a wavelength of 570 nm with background subtraction at 630–690 nm. Then absorbance values from the MTT were converted to cells/well using a standard curve. Cell viabilities were calculated using the formula; [mean of cells in treated well]/[mean of cells in control well] × 100%. Each experiment was performed independently three times in triplicate."}, "[10]": {"tested_on": "all tested isolates (K. pneumoniae, S. epidermidis, P. aeruginosa, P. aeruginosa ATCC 27853)", "test": "Killing of planktonic bacteria (CFU count), statements for all tested isolates", "format": "cell-based", "conditions": "1 μM, within 1 h, 5 x 10^5 CFU/ml, all tested strains", "experimental": "A bacterial suspension without peptide served as a control. The samples were then serially diluted and cultivated on NA (Himedia®) and incubated for 24 h to allow colony counting. […] Each experiment was performed independently three times in duplicate."}, "[11]": {"tested_on": "hRBCs (human red blood cells)", "conditions": "cited from earlier work"}, "[12]": {"tested_on": "P. aeruginosa biofilm", "test": "Checkerboard synergy of D-LL-31 with antibiotics on biofilm", "format": "cell-based, Pseudomonas aeruginosa", "conditions": "IC50 alone compared with concentration of combination", "experimental": "as §1"}, "[13]": {"tested_on": "P. aeruginosa biofilm matrix", "test": "Biofilm matrix reduction (AAA-model, CLSM, COMSTAT biomass)", "format": "cell-based, Pseudomonas aeruginosa", "conditions": "combination of D-LL-31 (0.5 μM) and TOB (0.2 μM), 24 h", "experimental": "as §3"}},
  "note": "Square brackets hold non-standard residues; d marks the D form. Peptide text beside a SMILES is read from it.",
  "data": [
    {"smiles": "CC[C@@H](C)[C@@H](NC(=O)[C@@H](CCCCN)NC(=O)[C@@H](CCC(=O)O)NC(=O)[C@@H](CCCCN)NC(=O)[C@@H](CO)NC(=O)[C@@H](CCCCN)NC(=O)[C@@H](CCCNC(=N)N)NC(=O)[C@@H](Cc1ccccc1)NC(=O)[C@@H](Cc1ccccc1)NC(=O)[C@@H](CC(=O)O)NC(=O)CNC(=O)[C@@H](CC(C)C)NC(=O)[C@H](N)CC(C)C)C(=O)NCC(=O)N[C@H](CCCCN)C(=O)N[C@H](CCC(=O)O)C(=O)N[C@H](Cc1ccccc1)C(=O)N[C@H](CCCCN)C(=O)N[C@H](CCCNC(=N)N)C(=O)N[C@@H](C(=O)N[C@@H](C(=O)N[C@H](CCC(N)=O)C(=O)N[C@H](CCCNC(=N)N)C(=O)N[C@@H](C(=O)N[C@H](CCCCN)C(=O)N[C@H](CC(=O)O)C(=O)N[C@H](Cc1ccccc1)C(=O)N[C@H](CC(C)C)C(=O)N[C@H](CCCNC(=N)N)C(=O)N[C@H](CC(N)=O)C(=O)N[C@H](CC(C)C)C(=O)O)[C@H](C)CC)C(C)C)[C@H](C)CC", "note": "[D-LL-31] (H-[dL][dL]G[dD][dF][dF][dR][dK][dS][dK][dE][dK][dI]G[dK][dE][dF][dK][dR][dI][dV][dQ][dR][dI][dK][dD][dF][dL][dR][dN][dL]-OH; N-terminus and C-terminus assumed)", "values": [
      {"measurement": "Fold decrease of IC50 values", "setting": "[1]", "result": 8, "unit": "fold"},
      {"measurement": "expression of IFN-γ", "setting": "[2]", "result": "not found"},
      {"measurement": "expression of IL-6", "setting": "[2]", "result": "did not induce"},
      {"measurement": "levels of IL-4, IL-8, TNF-α and GRO-a, b and g", "setting": "[2]", "result": "no significant change"},
      {"measurement": "ENA-78 secretion relative to controls", "setting": "[2]; P < 0.05", "result": "significantly secreted"},
      {"measurement": "TIMP-2 in culture supernatant", "setting": "[2]; P < 0.05", "result": "significantly elevated"},
      {"measurement": "IC50", "setting": "[3]; 24 h biofilm, 24 h, read-out: IC50 values, range over all bacteria in biofilm", "result": "500 to 4000", "unit": "nM"},
      {"measurement": "IC70 values, range", "setting": "[3]; D-LL-31 alone and in combination with antibiotics, biofilm-stimulating condition", "result": "800 to 8700", "unit": "nM"},
      {"measurement": "IC90", "setting": "[3]; bacteria grown as biofilm, read-out: IC90 values, range", "result": "1000 to 25000", "unit": "nM"},
      {"measurement": "Fold decrease of IC50 values", "setting": "[4]", "result": 16, "unit": "fold"},
      {"measurement": "biofilm biomass relative to controls", "setting": "[5]; D-LL-31 in combination with antibiotics, 24 h, P < 0.001", "result": "Significant decreases"},
      {"measurement": "biofilm biomass relative to controls", "setting": "[5]; D-LL-31 treatment alone at IC50, 24 h, P < 0.01", "result": "Significant decreases"},
      {"measurement": "biofilm matrix relative to controls", "setting": "[5]; combination of D-LL-31 with AMX, 24 h, all tested strains", "result": "distinct decrease"},
      {"measurement": "IC50", "setting": "[6]", "result": 600, "unit": "nM"},
      {"measurement": "killing activity compared with all tested peptides", "setting": "[7]; 1.56–25 μM, P < 0.05, one-way ANOVA", "result": "significantly higher"},
      {"measurement": "IC50", "setting": "[7]; biofilm, 24 h", "result": 500, "unit": "nM"},
      {"measurement": "IC50", "setting": "[8]", "result": 4000, "unit": "nM"},
      {"measurement": "viable cells", "setting": "[9]", "result": "more than 80%"},
      {"measurement": "killing of bacterial cells, in words", "setting": "[10]", "result": "completely killed"},
      {"measurement": "hemolytic activity", "setting": "[11]", "result": "less than 1%"},
      {"measurement": "Fold decrease of IC50 values", "setting": "[12]; D-LL-31 combined with AMX", "result": 16, "unit": "fold"},
      {"measurement": "Fold decrease of IC50 values", "setting": "[12]; D-LL-31 combined with TOB", "result": 8, "unit": "fold"},
      {"measurement": "biofilm matrix relative to controls", "setting": "[13]", "result": "statistically significant reduction"}
    ]}
  ]
}
